The source made the active and inactive calls.
Legend:
[1] = target: Vascular endothelial growth factor receptor 3 (Homo sapiens) (UniProt P35916); assay: Inhibition of VEGFR3 (unknown origin) at 100 nM relative to control
[2] = target: Fibroblast growth factor receptor 3 (Homo sapiens) (UniProt P22607); assay: Inhibition of FGFR3 (unknown origin) at 100 nM relative to control
[3] = tested on: Epidermal growth factor receptor (Homo sapiens), P00533 [L858R,T790M,C797S]; assay: Inhibition of recombinant human C-terminal His-tagged/N-terminal GST-tagged EGFR (668 to 1210 residues) T790M/L858R/C797S mutant expressed in baculovirus expression system at 100 nM using poly (Glu,Tyr) 4:1 as substrate incubated for 1 hr in presence of ATP by ELISA relative to control
[4] = target: Tyrosine-protein kinase ABL1 (Homo sapiens) (UniProt P00519); assay: Inhibition of Abl (unknown origin) at 100 nM relative to control
[5] = target: Tyrosine-protein kinase TXK (Homo sapiens) (UniProt P42681); assay: Inhibition of Txk (unknown origin) at 100 nM relative to control
[6] = target: Tyrosine-protein kinase receptor UFO (Homo sapiens) (UniProt P30530); assay: Inhibition of AXL (unknown origin) at 100 nM relative to control
BaF3 [7] = assay: Antiproliferative activity against mouse BAF3 cells transfected with EGFR L858R/T790M/C797S mutant (unknown origin) incubated for 72 hrs by resazurin dye based assay; format: functional, cell-based; settings: BaF3, 72 h
[8] = target: Fibroblast growth factor receptor 2 (Homo sapiens) (UniProt P21802); assay: Inhibition of FGFR2 (unknown origin) at 100 nM relative to control
[9] = target: Tyrosine-protein kinase BTK (Homo sapiens) (UniProt Q06187); assay: Inhibition of BTK (unknown origin) at 100 nM relative to control
[10] = target: Tyrosine-protein kinase Blk (Homo sapiens) (UniProt P51451); assay: Inhibition of BLK (unknown origin) at 100 nM relative to control
[11] = target: Epidermal growth factor receptor (Homo sapiens, UniProt P00533, C797S/L858R/T790M); assay: Inhibition of recombinant human C-terminal His-tagged/N-terminal GST-tagged EGFR (668 to 1210 residues) T790M/L858R/C797S mutant expressed in baculovirus expression system using poly (Glu,Tyr) 4:1 as substrate incubated for 1 hr in presence of ATP by ELISA
[12] = target: Vascular endothelial growth factor receptor 2 (Homo sapiens) (UniProt P35968); assay: Inhibition of VEGFR2 (unknown origin) at 100 nM relative to control
[13] = target: Tyrosine-protein kinase JAK1 (Homo sapiens) (UniProt P23458); assay: Inhibition of JAK1 (unknown origin) at 100 nM relative to control
[14] = tested on: Epidermal growth factor receptor (Homo sapiens), P00533 [L858R,T790M,C797S]; assay: Inhibition of EGFR L858R/T790M/C797S mutant (unknown origin) transfected in mouse BAF3 cells assessed as inhibition of EGF-induced EGFR phosphorylation by Western blot analysis; format: cell-based
[15] = Clearance in rat at 1 mg/kg, iv measured for 0.083 to 24 hrs by LC-MS/MS analysis; format: ADME, organism-based; settings: in vivo
[16] = target: Proto-oncogene tyrosine-protein kinase Src (Homo sapiens) (UniProt P12931); assay: Inhibition of Src (unknown origin) at 100 nM relative to control
[17] = target: Platelet-derived growth factor receptor alpha (Homo sapiens) (UniProt P16234); assay: Inhibition of PDGFRalpha (unknown origin) at 100 nM relative to control
BaF3 [18] = assay: Antiproliferative activity against mouse BAF3 cells transfected with EGFR 19D/T790M/C797S mutant (unknown origin) incubated for 72 hrs by resazurin dye based assay; format: functional, cell-based; settings: BaF3, 72 h
[19] = target: Tyrosine-protein kinase Yes (Homo sapiens) (UniProt P07947); assay: Inhibition of YES (unknown origin) at 100 nM relative to control
[20] = target: ALK tyrosine kinase receptor (Homo sapiens) (UniProt Q9UM73); assay: Inhibition of ALK (unknown origin) at 100 nM relative to control
[21] = target: Hepatocyte growth factor receptor (Homo sapiens) (UniProt P08581); assay: Inhibition of MET (unknown origin) at 100 nM relative to control
[22] = target: Epidermal growth factor receptor (Homo sapiens, UniProt P00533, C797S/EX19DEL/T790M); assay: Inhibition of EGFR 19D/T790M/C797S mutant (unknown origin) using poly (Glu,Tyr) 4:1 as substrate incubated for 1 hr in presence of ATP by ELISA
[23] = target: Fibroblast growth factor receptor 1 (Homo sapiens) (UniProt P11362); assay: Inhibition of FGFR1 (unknown origin) at 100 nM relative to control
[24] = target: NT-3 growth factor receptor (Homo sapiens) (UniProt Q16288); assay: Inhibition of TrkC (unknown origin) at 100 nM relative to control
A-431 = assay: Antiproliferative activity human A431 cells incubated for 72 hrs by SRB assay; format: functional, cell-based; settings: A-431, 72 h
[25] = target: Cytoplasmic tyrosine-protein kinase BMX (Homo sapiens) (UniProt P51813); assay: Inhibition of BMX (unknown origin) at 100 nM relative to control
[26] = target: Ephrin type-B receptor 2 (Homo sapiens) (UniProt P29323); assay: Inhibition of EPHB2 (unknown origin) at 100 nM relative to control
[27] = target: Proto-oncogene tyrosine-protein kinase receptor Ret (Homo sapiens) (UniProt P07949); assay: Inhibition of RET (unknown origin) at 100 nM relative to control
[28] = target: High affinity nerve growth factor receptor (Homo sapiens) (UniProt P04629); assay: Inhibition of TrkA (unknown origin) at 100 nM relative to control
[29] = target: Fibroblast growth factor receptor 4 (Homo sapiens) (UniProt P22455); assay: Inhibition of FGFR4 (unknown origin) at 100 nM relative to control
[30] = target: Tyrosine-protein kinase JAK3 (Homo sapiens) (UniProt P52333); assay: Inhibition of JAK3 (unknown origin) at 100 nM relative to control
[31] = target: Receptor tyrosine-protein kinase erbB-4 (Homo sapiens) (UniProt Q15303); assay: Inhibition of ErbB4 (unknown origin) at 100 nM relative to control
NCI-H1975 = assay: Antiproliferative activity human NCI-H1975 cells incubated for 72 hrs by SRB assay; format: functional, cell-based; settings: NCI-H1975, 72 h
[32] = Oral bioavailability in rat at 10 mg/kg measured for 0.083 to 24 hrs by LC-MS/MS analysis; format: ADME, organism-based; settings: in vivo
[33] = tested on: Epidermal growth factor receptor (Homo sapiens), P00533 [L858R,T790M,C797S]; assay: Inhibition of EGFR L858R/T790M/C797S mutant (unknown origin) transfected in mouse BAF3 cells assessed as inhibition of EGF-induced EGFR phosphorylation at 0.1 uM by Western blot analysis; format: cell-based
[34] = target: Receptor tyrosine-protein kinase erbB-2 (Homo sapiens) (UniProt P04626); assay: Inhibition of ErbB2 (unknown origin) at 100 nM relative to control

Chain of Epidermal growth factor receptor (Homo sapiens), P00533 [L858R,T790M,C797S] (P00533 whole entry T790M/C797S/L858R, the tested form may be a part): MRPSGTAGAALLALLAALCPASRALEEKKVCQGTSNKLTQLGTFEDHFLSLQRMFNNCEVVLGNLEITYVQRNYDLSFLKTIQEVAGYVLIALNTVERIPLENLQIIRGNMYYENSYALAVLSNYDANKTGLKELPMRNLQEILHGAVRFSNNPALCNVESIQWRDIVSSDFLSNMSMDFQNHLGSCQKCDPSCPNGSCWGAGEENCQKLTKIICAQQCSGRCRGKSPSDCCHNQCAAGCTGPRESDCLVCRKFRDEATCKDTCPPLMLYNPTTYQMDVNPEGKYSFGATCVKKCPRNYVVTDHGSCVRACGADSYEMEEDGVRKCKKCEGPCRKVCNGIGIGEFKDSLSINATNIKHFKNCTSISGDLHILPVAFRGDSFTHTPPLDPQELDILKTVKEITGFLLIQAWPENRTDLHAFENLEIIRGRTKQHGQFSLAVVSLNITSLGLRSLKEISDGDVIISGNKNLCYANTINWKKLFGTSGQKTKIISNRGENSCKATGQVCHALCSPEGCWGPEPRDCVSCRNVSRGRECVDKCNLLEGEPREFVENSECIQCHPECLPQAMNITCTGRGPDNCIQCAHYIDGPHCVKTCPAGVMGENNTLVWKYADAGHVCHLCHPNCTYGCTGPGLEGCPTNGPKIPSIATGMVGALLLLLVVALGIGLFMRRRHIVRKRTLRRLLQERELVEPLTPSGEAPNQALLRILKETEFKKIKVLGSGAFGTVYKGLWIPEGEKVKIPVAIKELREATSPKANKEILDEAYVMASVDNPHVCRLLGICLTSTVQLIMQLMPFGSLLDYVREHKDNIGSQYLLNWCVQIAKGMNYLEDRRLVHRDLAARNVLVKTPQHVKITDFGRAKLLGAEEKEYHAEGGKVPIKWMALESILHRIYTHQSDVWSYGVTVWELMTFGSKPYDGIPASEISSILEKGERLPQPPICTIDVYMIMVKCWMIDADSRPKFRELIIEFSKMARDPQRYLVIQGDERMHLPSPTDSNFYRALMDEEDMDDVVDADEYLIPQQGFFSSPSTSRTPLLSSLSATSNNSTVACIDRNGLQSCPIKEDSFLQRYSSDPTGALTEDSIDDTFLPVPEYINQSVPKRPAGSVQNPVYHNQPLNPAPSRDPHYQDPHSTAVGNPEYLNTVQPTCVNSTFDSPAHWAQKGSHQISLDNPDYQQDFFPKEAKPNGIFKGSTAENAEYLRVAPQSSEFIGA
Chain of Tyrosine-protein kinase TXK (Homo sapiens) (P42681 whole entry): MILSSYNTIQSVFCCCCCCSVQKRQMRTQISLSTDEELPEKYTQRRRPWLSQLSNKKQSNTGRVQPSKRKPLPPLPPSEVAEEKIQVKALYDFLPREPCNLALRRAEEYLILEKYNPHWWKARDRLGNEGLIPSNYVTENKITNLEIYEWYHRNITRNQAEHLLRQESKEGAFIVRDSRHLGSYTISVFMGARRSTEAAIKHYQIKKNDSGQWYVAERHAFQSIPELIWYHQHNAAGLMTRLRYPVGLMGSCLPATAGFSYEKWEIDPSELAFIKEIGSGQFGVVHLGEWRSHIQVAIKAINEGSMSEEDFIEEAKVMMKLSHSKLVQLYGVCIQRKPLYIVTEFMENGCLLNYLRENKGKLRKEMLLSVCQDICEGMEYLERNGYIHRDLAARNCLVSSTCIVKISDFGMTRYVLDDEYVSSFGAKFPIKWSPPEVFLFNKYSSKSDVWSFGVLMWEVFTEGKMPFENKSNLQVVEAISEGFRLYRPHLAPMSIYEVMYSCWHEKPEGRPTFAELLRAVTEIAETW
Chain of Cytoplasmic tyrosine-protein kinase BMX (Homo sapiens) (P51813 whole entry): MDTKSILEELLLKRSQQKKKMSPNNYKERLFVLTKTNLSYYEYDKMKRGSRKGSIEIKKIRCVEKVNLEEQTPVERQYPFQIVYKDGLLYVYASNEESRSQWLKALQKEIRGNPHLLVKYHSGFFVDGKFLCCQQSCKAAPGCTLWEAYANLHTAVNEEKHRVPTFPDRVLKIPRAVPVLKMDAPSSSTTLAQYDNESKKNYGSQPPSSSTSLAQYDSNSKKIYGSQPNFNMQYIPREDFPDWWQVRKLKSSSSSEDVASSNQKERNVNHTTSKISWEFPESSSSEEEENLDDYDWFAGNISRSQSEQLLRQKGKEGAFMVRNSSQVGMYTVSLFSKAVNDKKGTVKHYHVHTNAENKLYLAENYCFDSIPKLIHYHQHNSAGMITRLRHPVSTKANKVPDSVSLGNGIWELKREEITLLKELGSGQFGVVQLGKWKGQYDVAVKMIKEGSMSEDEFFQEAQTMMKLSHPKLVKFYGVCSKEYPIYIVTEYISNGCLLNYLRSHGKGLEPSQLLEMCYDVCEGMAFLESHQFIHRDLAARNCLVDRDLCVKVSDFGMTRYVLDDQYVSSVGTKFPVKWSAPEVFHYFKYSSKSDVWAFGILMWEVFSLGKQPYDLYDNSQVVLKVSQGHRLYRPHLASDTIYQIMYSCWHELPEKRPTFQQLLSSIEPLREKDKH
Chain of Tyrosine-protein kinase ABL1 (Homo sapiens) (P00519 whole entry): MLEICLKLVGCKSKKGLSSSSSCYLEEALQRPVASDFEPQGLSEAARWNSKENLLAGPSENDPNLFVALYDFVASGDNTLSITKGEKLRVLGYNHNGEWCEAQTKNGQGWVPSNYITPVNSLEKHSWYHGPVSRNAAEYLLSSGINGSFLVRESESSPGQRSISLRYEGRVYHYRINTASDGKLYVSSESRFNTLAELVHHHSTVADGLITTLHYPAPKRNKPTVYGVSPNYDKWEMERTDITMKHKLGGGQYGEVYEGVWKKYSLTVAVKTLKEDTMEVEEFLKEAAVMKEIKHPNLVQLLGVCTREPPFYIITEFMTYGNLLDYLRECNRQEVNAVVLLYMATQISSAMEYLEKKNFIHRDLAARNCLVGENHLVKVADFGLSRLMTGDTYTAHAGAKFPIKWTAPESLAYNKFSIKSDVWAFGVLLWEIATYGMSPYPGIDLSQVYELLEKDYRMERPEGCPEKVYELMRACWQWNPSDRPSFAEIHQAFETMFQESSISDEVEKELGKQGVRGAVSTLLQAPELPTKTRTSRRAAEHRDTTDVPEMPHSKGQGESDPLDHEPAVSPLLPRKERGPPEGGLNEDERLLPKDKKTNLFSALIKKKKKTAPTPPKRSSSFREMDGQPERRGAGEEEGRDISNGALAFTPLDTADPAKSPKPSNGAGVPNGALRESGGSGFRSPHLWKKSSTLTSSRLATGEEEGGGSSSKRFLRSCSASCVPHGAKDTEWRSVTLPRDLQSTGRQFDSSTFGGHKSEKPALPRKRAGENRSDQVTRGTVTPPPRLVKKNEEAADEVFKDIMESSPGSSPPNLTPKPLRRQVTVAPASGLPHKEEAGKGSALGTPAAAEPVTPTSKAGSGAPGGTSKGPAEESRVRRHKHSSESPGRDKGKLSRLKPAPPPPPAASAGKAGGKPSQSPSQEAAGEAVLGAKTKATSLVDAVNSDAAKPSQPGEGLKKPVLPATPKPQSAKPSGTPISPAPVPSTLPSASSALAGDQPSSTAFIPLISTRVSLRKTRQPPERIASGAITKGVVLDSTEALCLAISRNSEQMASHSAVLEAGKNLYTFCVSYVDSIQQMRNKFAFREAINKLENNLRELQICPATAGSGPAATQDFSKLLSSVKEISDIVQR
Chain of Epidermal growth factor receptor (Homo sapiens, UniProt P00533, C797S/EX19DEL/T790M) (P00533 whole entry, looked up, stated change not applied): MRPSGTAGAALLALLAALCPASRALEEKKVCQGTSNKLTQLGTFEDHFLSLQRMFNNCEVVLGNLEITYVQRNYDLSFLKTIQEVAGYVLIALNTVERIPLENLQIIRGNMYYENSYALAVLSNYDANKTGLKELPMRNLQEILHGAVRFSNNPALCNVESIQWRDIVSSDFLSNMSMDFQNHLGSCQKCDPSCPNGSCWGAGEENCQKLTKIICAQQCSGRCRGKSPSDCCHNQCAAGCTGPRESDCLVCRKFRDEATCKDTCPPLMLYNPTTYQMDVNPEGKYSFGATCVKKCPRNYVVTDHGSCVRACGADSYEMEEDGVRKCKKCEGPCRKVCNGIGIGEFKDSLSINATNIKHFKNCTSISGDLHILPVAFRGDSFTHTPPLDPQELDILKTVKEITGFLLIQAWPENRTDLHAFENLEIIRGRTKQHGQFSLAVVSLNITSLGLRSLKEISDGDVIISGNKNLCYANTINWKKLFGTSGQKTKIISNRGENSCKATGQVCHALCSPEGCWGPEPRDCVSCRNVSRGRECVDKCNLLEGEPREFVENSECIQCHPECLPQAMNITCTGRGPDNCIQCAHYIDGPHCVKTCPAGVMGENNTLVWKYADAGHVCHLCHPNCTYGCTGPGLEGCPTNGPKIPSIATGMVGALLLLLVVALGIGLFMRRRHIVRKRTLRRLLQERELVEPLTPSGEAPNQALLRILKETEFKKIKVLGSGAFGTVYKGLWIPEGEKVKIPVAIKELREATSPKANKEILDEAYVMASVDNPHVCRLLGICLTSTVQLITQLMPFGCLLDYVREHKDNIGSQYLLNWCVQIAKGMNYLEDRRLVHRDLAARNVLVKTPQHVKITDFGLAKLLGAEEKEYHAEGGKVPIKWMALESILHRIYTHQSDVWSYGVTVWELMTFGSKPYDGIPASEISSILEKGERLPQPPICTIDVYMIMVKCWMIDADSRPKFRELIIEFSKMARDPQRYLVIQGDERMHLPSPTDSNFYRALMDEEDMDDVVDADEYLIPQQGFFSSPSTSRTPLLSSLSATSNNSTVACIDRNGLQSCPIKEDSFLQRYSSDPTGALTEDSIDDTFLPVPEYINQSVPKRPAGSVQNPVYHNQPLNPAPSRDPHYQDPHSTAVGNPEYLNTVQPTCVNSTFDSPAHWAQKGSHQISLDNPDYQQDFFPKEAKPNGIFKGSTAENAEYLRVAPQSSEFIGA

COc1cc2c(Nc3ccc(NC(=O)C(c4cc(F)ccc4F)N4Cc5ccccc5C4=O)cc3F)ncnc2cc1OCC1CCN(C)CC1 (stereo unspecified)
50 to 75%: inhibition [4] | inhibition [5] | inhibition [6] | inhibition [9] | inhibition [12] | inhibition [16] | inhibition [17]
16 mL/min/kg: clearance [15]
3030 nM: IC50 (NCI-H1975)
1240 nM: IC50 (A-431)
331 nM: IC50 [22]
2.2 nM: IC50 [11]
< 25%: inhibition [1] | inhibition [2] | inhibition [8] | inhibition [13] | inhibition [19] | inhibition [20] | inhibition [21] | inhibition [23] | inhibition [24] | inhibition [25] | inhibition [26] | inhibition [27] | inhibition [28] | inhibition [29] | inhibition [30]
> 90%: inhibition [3] | inhibition [10] | inhibition [31] | inhibition [34]
3540 nM: IC50 (BaF3 [18])
active: inhibition [14] Dose-dependent effect | inhibition [33]
0.55%: bioavailability [32]
640 nM: IC50 (BaF3 [7])

Source: ChEMBL document CHEMBL4396901, “Discovery of Potent and Noncovalent Reversible EGFR Kinase Inhibitors of EGFRL858R/T790M/C797S” (ACS Med Chem Lett, 2019)
